Test system: 422866-222-R5-J1-PDC spheroid viability
Assay: Anticancer human tumor 422866-222-R5-J1-PDC patient-derived pancreatic adenocarcinoma cell line growth inhibition [CLK]
Conditions: spheroids with HUVEC and MSC; for IC50: curve of first compound; for viability, T/C: stronger effect = lower value
Procedure, shortened: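 Multi-cell-type spheroids combined patient-derived tumor cells with HUVEC endothelial cells and human mesenchymal stem cells. Paired agents were dosed in half-log steps down from about clinical Cmax, or from 10 microM where Cmax was unknown.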
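Note: spheroids exposed to agents for seven days before readout.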

For `C=CC(=O)Nc1cc(Nc2nccc(-c3cn(C)c4ccccc34)n2)c(OC)cc1N(C)CCN(C)C` + CN1CCN(c2cc(C(=O)Nc3cc4cc(-c5cnn(C)c5)ccc4cn3)ccn2)CC1, the IC50 (second compound 0.0316 µM) was greater than 300 nM, the IC50 (second compound 0.1 µM) was greater than 300 nM and the IC50 (second compound 0.316 µM) was greater than 300 nM. The IC50 (second compound 1 µM) was less than 0.949 nM, the IC50 (second compound 3.16 µM) was less than 0.949 nM and the IC50 (second compound 10 µM) was less than 0.949 nM. For the same molecule, the viability, T/C (second compound 0.0316 µM, first compound 0.000949 µM) was 122%, the viability, T/C (second compound 0.0316 µM, first compound 0.003 µM) was 103% and the viability, T/C (second compound 0.0316 µM, first compound 0.00949 µM) was 114%. It also gave a viability, T/C (second compound 0.0316 µM, first compound 0.03 µM) of 96%, a viability, T/C (second compound 0.0316 µM, first compound 0.0949 µM) of 93.9% and a viability, T/C (second compound 0.0316 µM, first compound 0.3 µM) of 77.8%. For the same molecule, the viability, T/C (second compound 0.1 µM, first compound 0.000949 µM) was 133%, the viability, T/C (second compound 0.1 µM, first compound 0.003 µM) was 129% and the viability, T/C (second compound 0.1 µM, first compound 0.00949 µM) was 107%. The viability, T/C (second compound 0.1 µM, first compound 0.03 µM) was 105%, the viability, T/C (second compound 0.1 µM, first compound 0.0949 µM) was 94.2% and the viability, T/C (second compound 0.1 µM, first compound 0.3 µM) was 93.2%. The viability, T/C (second compound 0.316 µM, first compound 0.000949 µM) was 94%, the viability, T/C (second compound 0.316 µM, first compound 0.003 µM) was 87.2% and the viability, T/C (second compound 0.316 µM, first compound 0.00949 µM) was 93.7%. For the same molecule, the viability, T/C (second compound 0.316 µM, first compound 0.03 µM) was 83.9%, the viability, T/C (second compound 0.316 µM, first compound 0.0949 µM) was 87.6% and the viability, T/C (second compound 0.316 µM, first compound 0.3 µM) was 79%. It also gave a viability, T/C (second compound 1 µM, first compound 0.000949 µM) of 29.3%, a viability, T/C (second compound 1 µM, first compound 0.003 µM) of 36.8% and a viability, T/C (second compound 1 µM, first compound 0.00949 µM) of 35.3%. It also gave a viability, T/C (second compound 1 µM, first compound 0.03 µM) of 29.3%, a viability, T/C (second compound 1 µM, first compound 0.0949 µM) of 30.8% and a viability, T/C (second compound 1 µM, first compound 0.3 µM) of 23.7%. The viability, T/C (second compound 3.16 µM, first compound 0.000949 µM) was 9.51%, the viability, T/C (second compound 3.16 µM, first compound 0.003 µM) was 9.88% and the viability, T/C (second compound 3.16 µM, first compound 0.00949 µM) was 10.5%. For the same molecule, the viability, T/C (second compound 3.16 µM, first compound 0.03 µM) was 10.5%, the viability, T/C (second compound 3.16 µM, first compound 0.0949 µM) was 9.87% and the viability, T/C (second compound 3.16 µM, first compound 0.3 µM) was 9.45%. It also gave a viability, T/C (second compound 10 µM, first compound 0.000949 µM) of 2.62%, a viability, T/C (second compound 10 µM, first compound 0.003 µM) of 2.53% and a viability, T/C (second compound 10 µM, first compound 0.00949 µM) of 2.32%. It also gave a viability, T/C (second compound 10 µM, first compound 0.03 µM) of 1.8%, a viability, T/C (second compound 10 µM, first compound 0.0949 µM) of 1.99% and a viability, T/C (second compound 10 µM, first compound 0.3 µM) of 1.66%.
In the case of `CCN1CCN(Cc2ccc(Nc3ncc(F)c(-c4cc(F)c5nc(C)n(C(C)C)c5c4)n3)nc2)CC1` + CN1CCN(c2cc(C(=O)Nc3cc4cc(-c5cnn(C)c5)ccc4cn3)ccn2)CC1, the IC50 (second compound 0.0316 µM) is reported as greater than 1000 nM, the IC50 (second compound 0.1 µM) is reported as greater than 1000 nM and the IC50 (second compound 0.316 µM) is reported as greater than 1000 nM. It also gave an IC50 (second compound 1 µM) of less than 3.16 nM, an IC50 (second compound 3.16 µM) of less than 3.16 nM and an IC50 (second compound 10 µM) of less than 3.16 nM. It also gave a viability, T/C (second compound 0.0316 µM, first compound 0.00316 µM) of 110%, a viability, T/C (second compound 0.0316 µM, first compound 0.01 µM) of 101% and a viability, T/C (second compound 0.0316 µM, first compound 0.0316 µM) of 89%. The viability, T/C (second compound 0.0316 µM, first compound 0.1 µM) was 88.8%, the viability, T/C (second compound 0.0316 µM, first compound 0.316 µM) was 90.8% and the viability, T/C (second compound 0.0316 µM, first compound 1 µM) was 110%. For the same molecule, the viability, T/C (second compound 0.1 µM, first compound 0.00316 µM) was 122%, the viability, T/C (second compound 0.1 µM, first compound 0.01 µM) was 113% and the viability, T/C (second compound 0.1 µM, first compound 0.0316 µM) was 93.8%. It also gave a viability, T/C (second compound 0.1 µM, first compound 0.1 µM) of 85.5%, a viability, T/C (second compound 0.1 µM, first compound 0.316 µM) of 72.5% and a viability, T/C (second compound 0.1 µM, first compound 1 µM) of 107%. It also gave a viability, T/C (second compound 0.316 µM, first compound 0.00316 µM) of 103%, a viability, T/C (second compound 0.316 µM, first compound 0.01 µM) of 84.9% and a viability, T/C (second compound 0.316 µM, first compound 0.0316 µM) of 89%. The viability, T/C (second compound 0.316 µM, first compound 0.1 µM) was 72.3%, the viability, T/C (second compound 0.316 µM, first compound 0.316 µM) was 69.4% and the viability, T/C (second compound 0.316 µM, first compound 1 µM) was 84.5%. The viability, T/C (second compound 1 µM, first compound 0.00316 µM) was 34.6%, the viability, T/C (second compound 1 µM, first compound 0.01 µM) was 37.7% and the viability, T/C (second compound 1 µM, first compound 0.0316 µM) was 34.4%. The viability, T/C (second compound 1 µM, first compound 0.1 µM) was 41.9%, the viability, T/C (second compound 1 µM, first compound 0.316 µM) was 53.5% and the viability, T/C (second compound 1 µM, first compound 1 µM) was 49.8%. It also gave a viability, T/C (second compound 3.16 µM, first compound 0.00316 µM) of 8.29%, a viability, T/C (second compound 3.16 µM, first compound 0.01 µM) of 8.47% and a viability, T/C (second compound 3.16 µM, first compound 0.0316 µM) of 8.82%. For the same molecule, the viability, T/C (second compound 3.16 µM, first compound 0.1 µM) was 7.58%, the viability, T/C (second compound 3.16 µM, first compound 0.316 µM) was 9.92% and the viability, T/C (second compound 3.16 µM, first compound 1 µM) was 13.5%. The viability, T/C (second compound 10 µM, first compound 0.00316 µM) was 1.95%, the viability, T/C (second compound 10 µM, first compound 0.01 µM) was 2.42% and the viability, T/C (second compound 10 µM, first compound 0.0316 µM) was 1.51%. The viability, T/C (second compound 10 µM, first compound 0.1 µM) was 1.89%, the viability, T/C (second compound 10 µM, first compound 0.316 µM) was 2.56% and the viability, T/C (second compound 10 µM, first compound 1 µM) was 1.96%.
